Test results as given in US9630984B2, “Compound contained in manuka honey and use of same” (HEALTHCARE SYSTEMS, priority 2011, dated 2017).

Biological target: T1, human MPO (Homo sapiens, UniProt P05164)
T1 sequence (P05164 49-745): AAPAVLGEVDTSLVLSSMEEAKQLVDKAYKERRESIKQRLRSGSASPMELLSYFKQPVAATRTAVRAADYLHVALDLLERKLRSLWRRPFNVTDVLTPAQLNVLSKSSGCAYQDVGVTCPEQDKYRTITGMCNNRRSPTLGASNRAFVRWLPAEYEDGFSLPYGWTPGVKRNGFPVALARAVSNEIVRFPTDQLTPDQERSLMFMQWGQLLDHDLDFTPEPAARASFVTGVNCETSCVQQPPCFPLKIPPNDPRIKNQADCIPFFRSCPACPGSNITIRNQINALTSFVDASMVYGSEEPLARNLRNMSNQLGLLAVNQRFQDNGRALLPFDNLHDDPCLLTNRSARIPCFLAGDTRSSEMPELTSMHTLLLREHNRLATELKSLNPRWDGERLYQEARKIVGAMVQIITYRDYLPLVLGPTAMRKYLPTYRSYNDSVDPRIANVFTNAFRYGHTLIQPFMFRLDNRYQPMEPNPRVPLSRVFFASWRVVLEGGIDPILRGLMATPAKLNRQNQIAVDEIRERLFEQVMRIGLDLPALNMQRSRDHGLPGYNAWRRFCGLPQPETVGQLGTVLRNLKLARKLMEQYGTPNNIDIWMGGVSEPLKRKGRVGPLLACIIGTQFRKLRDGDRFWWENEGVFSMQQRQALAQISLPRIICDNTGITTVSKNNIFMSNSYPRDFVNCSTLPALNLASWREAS
Experiment: MPO inhibition activity: inhibition of halogenation of tyrosine residues of biotin-labeled BSA (ELISA with 3A5 antibody)
Assay type: biochemical
Details: sample prepared to 5 mM, 10 μl in about 110 μl reaction; 30 minutes at 37° C.; absorbancy 450 nm/550 nm
Procedure: The MPO inhibition activities of the isolated MGGD and its aglycon MSYR were measured by evaluating inhibition of the halogenation of the tyrosine residues of a biotin-labeled protein (bovine serum albumin). It is thus possible to measure either inhibition of the MPO enzyme itself or the ability to extinguish or capture hypobromous acid (HOBr) and other active species produced by the enzyme.
The necessary solutions and the like for the reaction were prepared as follows.
(2) Xanthine oxidase (XOD) (Sigma X4500-25UN) diluted 100× with water.
(4) Biotin-BSA (Sigma-A6043-10MG) dissolved to 1 mg/ml in 0.1 M phosphate buffer with 200 μM NaBr and 200 mM NaCl added in advance, then freeze dried for storage, and diluted to 0.4 mg/ml before use.
(5) Sample prepared to 5 mM.
(6) Reduced glutathione (GSH) (Sigma G-6529) as a positive control.
(7) L-methionine, dissolved in water to 10 mM. […]
50 μl of a 10 μg/ml concentration 3A5 antibody (Nikken Seil) recognizing dihalogenated tyrosines was coated as a primary antibody on each microplate, and left standing overnight at 4° C. […] This was then left standing again for 45 minutes at 37° C. and washed, after which 100 μl of a TMB (3,3′-5,5′-tetramethylbentidine) coloring reagent (A liquid/B liquid=1/1) was added, and absorbancy was measured at 450 nm/550 nm for about 10 minutes with a microplate reader.

COC(=O)c1cc(OC)c(O[C@@H]2O[C@H](CO[C@@H]3O[C@H](CO)[C@@H](O)[C@H](O)[C@H]3O)[C@@H](O)[C@H](O)[C@H]2O)c(OC)c1 [MGGD, methyl-4-O-[β-D-glucopyranosyl-(1→6)-β-D-glucopyranosyl]-3,5-dimethoxybenzoate]
MPO enzyme inhibition activity (halogenated tyrosine production vs control with no added antioxidant): exhibited MPO enzyme inhibition activity
